The test system of experiment [1] is test strain 923 pPvra-lux. Put plainly: Secondary screen / synergy confirmation of Top 40, relative growth with oxacillin. The class given is cell-based, Staphylococcus aureus. Particulars: Top 40 library, compound at maximum non-GI conc. As to the method: In the secondary screen each microtiter plate contained either cells in TSB alone (16 replicates), cells with oxacillin (2 μg/mL, 31 replicates), or cells with test compound and oxacillin (2 μg/mL, 49 wells). Each compound was assayed in four separate biological replicates.
Synergy Confirmation of “Top 40”. […]

Experiment [2] relates to vraSR promoter (Pvra-lux reporter in strain 923). In kind it is cell-based, Staphylococcus aureus. To be noted: for RL Ox avg: Top 40 library, with oxacillin, compound at maximum non-GI conc; for vraSR repressing synergist: overall class from syn and rep. As to the method:
In the secondary screen each microtiter plate contained either cells in TSB alone (16 replicates), cells with oxacillin (2 μg/mL, 31 replicates), or cells with test compound and oxacillin (2 μg/mL, 49 wells). Each compound was assayed in four separate biological replicates. […]

In experiment [3] the test system is test strain (923 pPvra-lux). Briefly: Growth inhibition by compound alone (maximum non-growth-inhibitory concentration). Particulars: for maximum non-GI conc: compound alone, maximum concentration where it did NOT inhibit growth. The class given is cell-based, Staphylococcus aureus.
Experiment [4] deals with test strain 923 pPvra-lux (USA300 MRSA). Briefly: Primary screen, relative growth in presence of oxacillin. To be noted: compound 10 μM with oxacillin 2 μg/mL, absorbance 24 h, <0.50 = dead cells = hit.
For experiment [5], the system named is vraSR promoter (Pvra-lux reporter in strain 923). Briefly: Primary screen, relative luminescence (vraSR expression).
Where [6] appears, read: primary screen, compound 10 μM with oxacillin 2 μg/mL, <0.50 = vraSR repressed = hit.

Read-outs that look alike come from different tables or passages of the source.

With `O=C(Nc1cccc(C(F)(F)F)c1)N1CCN(c2ccc3nncn3n2)CC1` [F5123-0084], the “RG Ox avg” value in experiment [1] worked out at 1.08. Moreover, in experiment [2], the “RL Ox avg” value came to 0.67 and the vraSR repressing synergist is recorded as 3. no effect. In addition, the “maximum non-GI conc” value in experiment [3] turned out to be 40 µg/mL. In addition, the “RG avg (relative growth)” value in experiment [4] turned out to be 0.02. In addition, the “RL avg (relative luminescence)” value in experiment [5] (setting [6]) is given as −0.08.
As to `Cc1ccc(-c2nnc(NC(=O)c3ccc(S(=O)(=O)N4CCc5ccccc5C4)cc3)o2)c(C)c1` [F2518-0213], the “RG Ox avg” value in experiment [1] came to 1.14. In addition, in experiment [2], the “RL Ox avg” value was determined as 0.33 and the vraSR repressing synergist is listed as 3. no effect. Moreover, in experiment [3], the “maximum non-GI conc” value was determined as 4 µg/mL. The “RG avg (relative growth)” value in experiment [4] is listed as 0.01. Moreover, the “RL avg (relative luminescence)” value in experiment [5] (setting [6]) is −0.01.
As for `Cc1cc(SCC(=O)Nc2cccc(C(F)(F)F)c2)n2ncc(-c3ccccc3)c2n1` [F3305-0354], the “RG Ox avg” value in experiment [1] amounted to 1.01. For the same molecule, in experiment [2], the “RL Ox avg” value is 0.61 and the vraSR repressing synergist is given as 3. no effect. In addition, the “maximum non-GI conc” value in experiment [3] amounted to 40 µg/mL. Also, in experiment [4], the “RG avg (relative growth)” value was 0.00. Besides, the “RL avg (relative luminescence)” value in experiment [5] (setting [6]) worked out at 0.03.
With `COc1ccc(Cl)c2sc(NC(=O)c3ccccc3NS(=O)(=O)c3ccc(F)cc3)nc12` [F2708-0138], the “RG Ox avg” value in experiment [1] came to 1.04. Also, in experiment [2], the “RL Ox avg” value was found to be 0.69 and the vraSR repressing synergist turned out to be 3. no effect. Moreover, the “maximum non-GI conc” value in experiment [3] is 40 µg/mL. The concentration in experiment [3] (compound tested alone, concentration where it did NOT inhibit growth (subinhibitory), Top 40 leads after secondary screen) worked out at 4 µg/mL. The “RG avg (relative growth)” value in experiment [4] worked out at 0.02. Further, the “RL avg (relative luminescence)” value in experiment [5] (setting [6]) was −0.07.
Consider `Clc1ccc(-c2csc3ncnc(Sc4nnnn4-c4ccccc4)c23)cc1` [F1142-4597], for which, in experiment [1], the “RG Ox avg” value is given as 0.08. Also, in experiment [2], the “RL Ox avg” value is listed as −0.01 and the vraSR repressing synergist came to 1. confirmed. In addition, the “maximum non-GI conc” value in experiment [3] worked out at 40 µg/mL. In addition, the “RG avg (relative growth)” value in experiment [4] came out at 0.03. The “RL avg (relative luminescence)” value in experiment [5] (setting [6]) is given as 0.37.
`OC(c1ccccc1)c1nc2ccccc2n1Cc1ccc(Cl)c(Cl)c1` (stereo not drawn) [F3068-0037]: the “RG Ox avg” value in experiment [1] was −0.01. In addition, in experiment [2], the “RL Ox avg” value came to 0.11 and the vraSR repressing synergist came out at 1. confirmed. For the same molecule, the “maximum non-GI conc” value in experiment [3] was determined as 400 µg/mL. In experiment [4], the “RG avg (relative growth)” value is given as −0.02. Further, in experiment [5] (setting [6]), the “RL avg (relative luminescence)” value is 0.05.
Consider `O=S(=O)(Nc1cccc(-c2nc3ccccc3s2)c1)c1ccc(F)c(Cl)c1` [F3394-0078], for which the “RG Ox avg” value in experiment [1] amounted to 1.24. Moreover, in experiment [2], the “RL Ox avg” value worked out at 0.41 and the vraSR repressing synergist came out at 3. no effect. In experiment [3], the “maximum non-GI conc” value was determined as 40 µg/mL. Also, the “RG avg (relative growth)” value in experiment [4] was 0.26. Further, the “RL avg (relative luminescence)” value in experiment [5] (setting [6]) was determined as 0.26.
`O=C(CCCSc1ccc(Cl)cc1)Nc1nc(-c2ccccn2)cs1` [F2813-0883]: the “RG Ox avg” value in experiment [1] was 1.03. Further, in experiment [2], the “RL Ox avg” value was 1.28 and the vraSR repressing synergist is 3. no effect. Also, in experiment [3], the “maximum non-GI conc” value is 40 µg/mL. In addition, the “RG avg (relative growth)” value in experiment [4] is reported as −0.03. In experiment [5] (setting [6]), the “RL avg (relative luminescence)” value is on record as −0.01.
For `CN(C)CCCNc1cc(C(C)(C)C)nc2c(-c3ccc(Cl)cc3)cnn12` [F3348-0373], the “RG Ox avg” value in experiment [1] worked out at 0.99. In experiment [2], the “RL Ox avg” value turned out to be 0.80 and the vraSR repressing synergist was 3. no effect. Moreover, the “maximum non-GI conc” value in experiment [3] was determined as 40 µg/mL. Moreover, in experiment [4], the “RG avg (relative growth)” value stood at 0.05. In addition, the “RL avg (relative luminescence)” value in experiment [5] (setting [6]) came to 0.41.
Turning to `CC1CCN(C(C)CNC(=O)Nc2ccc(C(F)(F)F)cc2)CC1` (stereo not drawn) [F2438-0002], the “RG Ox avg” value in experiment [1] was found to be 0.95. In experiment [2], the “RL Ox avg” value is 0.62 and the vraSR repressing synergist is given as 3. no effect. Besides, the “maximum non-GI conc” value in experiment [3] is 40 µg/mL. In experiment [4], the “RG avg (relative growth)” value is −0.02. Besides, the “RL avg (relative luminescence)” value in experiment [5] (setting [6]) is given as −0.18.
As for `O=C(COc1ccc(Cl)cc1Cl)Nc1nnc(-c2ccc(Cl)s2)o1` [F1374-1102], the “RG avg (relative growth)” value in experiment [4] was 0.13. The “RL avg (relative luminescence)” value in experiment [5] amounted to 0.49.
Turning to `O=C(Nc1nnc(-c2ccc(Cl)s2)o1)c1cc(-c2ccccc2)nc2ccccc12` [F1374-1094], the “RG avg (relative growth)” value in experiment [4] worked out at 0.03. Moreover, the “RL avg (relative luminescence)” value in experiment [5] (setting [6]) is 0.52.
For `O=C(Nc1nnc(-c2ccco2)o1)c1ccc(S(=O)(=O)N2CCCc3ccccc32)cc1` [F0608-447], in that order: −0.05 and −0.02.
For `COc1ccc(-c2nnc(NC(=O)c3cc(Cl)sc3Cl)o2)c(OC)c1` [F1374-583], in that order: 0.00 and 0.36.
For `CC1(C)COCN1S(=O)(=O)c1ccc(C(=O)Nc2nnc(-c3ccc(Cl)s3)o2)cc1` [F0559-390], in that order: −0.06 and −0.11.
`O=C(Nc1nnc(-c2ccco2)o1)c1cc(-c2ccccc2)nc2ccccc12` [F0608-448]: the “RG avg (relative growth)” value in experiment [4] is listed as 0.19. For the same molecule, the “RL avg (relative luminescence)” value in experiment [5] (setting [6]) is −0.04.
For `O=C(Nc1nnc(-c2ccc(F)cc2)o1)c1ccc(Br)s1` [F1374-140], in that order: 0.02 and 0.35.
For the molecule `COc1ccc(OCc2noc(CNC(=O)Nc3ccc(Cl)c(Cl)c3)n2)cc1` [F5882-3269], the “RG avg (relative growth)” value in experiment [4] was −0.01. Besides, in experiment [5] (setting [6]), the “RL avg (relative luminescence)” value is given as −0.02.
For `O=C(Nc1nnc(-c2cc(Cl)ccc2Cl)o1)c1nc2ccccc2s1` [F2518-39], in that order: −0.01 and −0.07.
For `COc1cccc(-c2nnc(NC(=O)c3cccc(Oc4ccccc4)c3)o2)c1` [F1374-396], in that order: 0.04 and 0.34.
For `O=C(Nc1nnc(-c2ccccc2Cl)o1)c1ccc(Cl)s1` [F1374-36], in that order: 0.04 and 0.35.
In the case of `O=C(Nc1nnc(-c2cccnc2)o1)c1cc(Cl)cc(Cl)c1` [F0608-1062], the “RG avg (relative growth)” value in experiment [4] is reported as −0.04. In addition, the “RL avg (relative luminescence)” value in experiment [5] (setting [6]) was −0.10.
For `COC(=O)c1ccc(C(=O)Nc2nnc(-c3cc(C)ccc3C)o2)cc1` [F2518-355], in that order: −0.01 and −0.04.
For `O=C(Nc1nnc(-c2ccccc2)o1)c1ccc(Br)s1` [F1374-875], in that order: 0.04 and 0.30.
For `O=C(Nc1nnc(-c2cc3ccccc3o2)o1)c1nc2ccccc2s1` [F2273-415], in that order: 0.27 and 0.22.
Consider `COc1cc(OC)cc(-c2nnc(NC(=O)c3ccc(S(=O)(=O)N(C)c4ccccc4)cc3)o2)c1` [F0559-246], for which the “RG avg (relative growth)” value in experiment [4] is recorded as −0.03. Moreover, the “RL avg (relative luminescence)” value in experiment [5] (setting [6]) is −0.08.
For `O=C(Nc1nnc(-c2ccc(F)cc2)o1)c1sc2ccccc2c1Cl` [F1374-148], in that order: 0.04 and 0.36.
For `O=C(Nc1nnc(-c2cc3ccccc3o2)o1)c1ccc2ncsc2c1` [F2273-492], in that order: 0.25 and 0.24.
For `O=C(Nc1nnc(-c2cc(Cl)sc2Cl)o1)c1cccs1` [F1374-2664], in that order: 0.00 and 0.32.
Regarding `CCOc1cccc2cc(-c3nnc(NC(=O)c4sc5ccccc5c4Cl)o3)oc12` [F2273-238], the “RG avg (relative growth)” value in experiment [4] stood at 0.26. In addition, the “RL avg (relative luminescence)” value in experiment [5] (setting [6]) is 0.19.
For `COc1cccc(C(=O)Nc2nnc(-c3ccc(C)c(C)c3)o2)c1` [F2767-17], in that order: 0.00 and −0.15.
For `COc1cccc(-c2nnc(NC(=O)c3ccc(S(=O)(=O)N(C)C4CCCCC4)cc3)o2)c1` [F0559-158], in that order: 0.03 and −0.07.
For `O=C(Nc1nnc(-c2ccc(Br)cc2)o1)c1ccc(Oc2ccccc2)cc1` [F2518-534], in that order: 0.01 and 0.04.
Take `O=C(Nc1nnc(-c2ccc(Br)s2)o1)c1ccc(F)cc1` [F5093-12]: in experiment [4], the “RG avg (relative growth)” value was found to be 0.01. In experiment [5] (setting [6]), the “RL avg (relative luminescence)” value is given as −0.01.
`O=C(Nc1nnc(-c2ccc(Br)s2)o1)c1cc(Cl)ccc1Cl` [F5093-46]: the “RG avg (relative growth)” value in experiment [4] was −0.01. For the same molecule, the “RL avg (relative luminescence)” value in experiment [5] (setting [6]) is listed as −0.07.
On to `O=C(Nc1nnc(-c2ccc3c(c2)CCCC3)o1)c1cccc(C(F)(F)F)c1` [F0608-575], for which the “RG avg (relative growth)” value in experiment [4] is on record as −0.02. Moreover, in experiment [5] (setting [6]), the “RL avg (relative luminescence)” value is listed as −0.09.
For the molecule `O=C(Nc1nnc(-c2cc3ccccc3o2)o1)c1cccc(Cl)c1` [F2273-385], the “RG avg (relative growth)” value in experiment [4] amounted to 0.28. Besides, the “RL avg (relative luminescence)” value in experiment [5] (setting [6]) was 0.16.
For `CCN(Cc1ccccc1)S(=O)(=O)c1ccc(C(=O)Nc2nnc(-c3ccc(OC)cc3)o2)cc1` [F0559-206], in that order: 0.19 and −0.11.

Source of the values: patent US9675592B2, “Methods and compositions for bacteria infections” (priority 2013, dated 2017).
